Measured values published in patent publication US5220042A, “1,4-benzoquinone derivatives and benzene derivatives, and process for preparing the same” (priority 1984, dated 1993).

Columns and labels:
[1] = test system: histamine release on anaphylaxis in abdominal cavity; experiment: Histamine releasing inhibition test on anaphylaxis in abdominal cavity of rats; type: in vivo, rat (Sprague-Dawley strain); conditions: oral, 3 hours before anaphylaxis; dose not given
Procedure: (§1) SRS-A and histamine releasing inhibition test on anaphylaxis in abdominal cavity of rats.
(§2) Male or female rats (Sprague-Dawley strain, delivered from Charles River, Japan Ltd., Tokyo) of 6-7 week age were used as the test animals. The test animals were devided into a group consisting of 6 animals in one group depending on their body weight. The animals were fasted overnight. The test was conducted by a method according to P. T. Orange et al.: "J. Immunol., Vol. 105", pages 1087-1095 (1970).
(§3) 1 Milliliter each of twofold diluted anti-ovalbumin serm of rat was intraperitoneally injected to each of the test animal so as to have the rat sensitized. 2 Hours after the sensitization, 5 ml of Tyrode's solution containing 2 mg of ovalbumin and 250 micrograms of heparin sodium was intraperitoneally administered to the test animal to cause anaphylaxis. 5 Minutes after, the test animal was stunned by the blow on the head and was exsanguinated and killed by cervical incision. Additional 5 minutes later, the abdominal fluid was collected from the opening of the abdomen. The fluid collected was centrifuged at 4° C., first at 800 rpm, then at 2,500 rpm and the supernatant was collected, and stored at -80° C. until the bioassay was conducted. […]
(§4) The amount of SRS-A and histamine contained in the collected abdominal fluid was measured by a method similar to that employed in Pharmacological test-2.
(§5) Bio-assay of the collected abdominal fluid was conducted by using ileum of guinea pig which was treated with atropine. […] The isotonic contraction of the piece of the ileum was measured at 0.5 g of load by using an isotonic transducer "TD-112S" (manufactured by Nihon Koden Co., Ltd.). The measurements were recorded on an ink-writing recorder.
After stabilization of the contraction reaction due to histmine, the amount of histamine was measured quantitatively by observing the contraction of the piece of the ileum shown within 30 seconds after addition of 0.05-0.4 ml of the abdominal fluid. […]

[2] = test system: SRS-A release on anaphylaxis in abdominal cavity; experiment: SRS-A releasing inhibition test on anaphylaxis in abdominal cavity of rats; type: in vivo, rat (Sprague-Dawley strain); conditions: oral, 3 hours before anaphylaxis; dose not given
Procedure: as §1, §2, §3, §4, §5
The amount of SRS-A was measured by using the value of contraction shown after the addition of 0.2-0.5 ml of the collected fluid in the presence of 10^-7 M of pyrilamine (antihistaminic agent), said value of the contraction was calculated as contraction activity caused by 5 ng of histamine. […]

Compound	Inhibitory rate (%) Histamine [1]	Inhibitory rate (%) SRS-A [2]
COC1=CC(=O)C(OC)=C(CCCCCC2=C(OC)C(=O)C=C(OC)C2=O)C1=O [Test Compound No. 9, 2,2'-Pentamethylenebis(3,6-dimethoxy-1,4-benzoquinone)]	-3.6%	4.9%
COC1=CC(=O)C(OC)=C(CCCCCCCCCC2=C(OC)C(=O)C=C(OC)C2=O)C1=O [Test Compound No. 13, 2,2'-Nonamethylenebis(3,6-dimethoxy-1,4-benzoquinone)]	10.9%	25.8%
COC1=CC(=O)C(OC)=C(CCCCCC#CCCCCCC2=C(OC)C(=O)C=C(OC)C2=O)C1=O [Test Compound No. 16, 2,2'-(6-Dodecynylene)bis(3,6-dimethoxy-1,4-benzoquinone)]	8.0%	15.5%
